Patent US20190307843A1, “SINGLE DOSE METHODS FOR PREVENTING AND TREATING FUNGAL INFECTIONS” (Cidara Therapeutics, Inc., priority 2016, published 2019)
Values after ≈ are worked out from the molar mass of the structure shown. Read-outs that look alike come from different tables or passages of the source.

Legend:
Candida auris strains = assay: Candida auris antifungal susceptibility testing (CLSI M27-A3), 38 strains; type: cell-based; conditions: for MIC: Candidozyma auris
C. albicans strain 529L = assay: Rat model of vulvovaginal candidiasis, vaginal lavage and tissue burden; type: in vivo, Candida albicans
[1] = type: in vivo, rat; conditions: rat, in vivo
Description: The rats were monitored at a frequency appropriate for their clinical condition. Rat weights were recorded at least once daily to ensure animals remained within ethical limits.

[2] = 20 mg/kg PO Dosed Once, lavage Day 1 post infection, pre-treatment
[3] = 20 mg/kg PO Dosed Once, lavage Day 2 post infection
[4] = 20 mg/kg PO Dosed Once, lavage Day 3 post infection
[5] = 20 mg/kg PO Dosed Once, lavage Day 5 post infection
[6] = 20 mg/kg PO Dosed Once, lavage Day 7 post infection
[7] = 20 mg/kg PO Dosed Once, lavage Day 9 post infection
[8] = 20 mg/kg PO Dosed Once, terminal vaginal tissue Day +9 post infection
[9] = 20 mg/kg PO Dosed Twice, lavage Day 1 post infection, pre-treatment
[10] = 20 mg/kg PO Dosed Twice, lavage Day 2 post infection
[11] = 20 mg/kg PO Dosed Twice, lavage Day 3 post infection
[12] = 20 mg/kg PO Dosed Twice, lavage Day 5 post infection
[13] = 20 mg/kg PO Dosed Twice, lavage Day 7 post infection
[14] = 20 mg/kg PO Dosed Twice, lavage Day 9 post infection
[15] = 20 mg/kg PO Dosed Twice, terminal vaginal tissue Day +9 post infection

Q: Which results are given for OC(Cn1cncn1)(Cn1cncn1)c1ccc(F)cc1F [fluconazole]?
A: MIC (Candida auris strains; 24 h, strain 1 VPCI 669/P/12): > 128 µg/mL; MIC (Candida auris strains; 24 h, strain 2 VCPI 671/P/12): > 128 µg/mL; MIC (Candida auris strains; 24 h, strain 3 VCPI 674/P/12): > 128 µg/mL; MIC (Candida auris strains; 24 h, strain 4 VCPI 683/P/12): > 128 µg/mL; MIC (Candida auris strains; 24 h, strain 5 VCPI 692/P/12): > 128 µg/mL; MIC (Candida auris strains; 24 h, strain 6 VCPI 712/P/12): > 128 µg/mL; MIC (Candida auris strains; 24 h, strain 7 VCPI 471/P/13): > 128 µg/mL; MIC (Candida auris strains; 24 h, strain 8 VCPI 475/P/13): > 128 µg/mL; MIC (Candida auris strains; 24 h, strain 9 VCPI 478/P/13): > 128 µg/mL; MIC (Candida auris strains; 24 h, strain 10 VCPI 479/P/13): > 128 µg/mL; MIC (Candida auris strains; 24 h, strain 11 VCPI 480/P/13): > 128 µg/mL; MIC (Candida auris strains; 24 h, strain 12 VCPI 482/P/13): > 128 µg/mL; MIC (Candida auris strains; 24 h, strain 13 VCPI 483/P/13): > 128 µg/mL; MIC (Candida auris strains; 24 h, strain 14 VCPI 1130/P/13, 24 h, read-out: MIC): 32 µg/mL (≈ 104 µM); MIC (Candida auris strains; 24 h, strain 15 VCPI 1132/P/13): 128 µg/mL (≈ 418 µM); MIC (Candida auris strains; 24 h, strain 16 VCPI 1133/P/13): > 128 µg/mL; MIC (Candida auris strains; 24 h, strain 17 VCPI 105/P/14): 128 µg/mL (≈ 418 µM); MIC (Candida auris strains; 24 h, strain 18 VCPI 107/P/14, 24 h, read-out: MIC): 64 µg/mL (≈ 209 µM); MIC (Candida auris strains; 24 h, strain 19 VCPI 510/P/14): > 128 µg/mL; MIC (Candida auris strains; 24 h, strain 20 VCPI 511/P/14): 128 µg/mL (≈ 418 µM); MIC (Candida auris strains; 24 h, strain 21 VCPI 512/P/14, 24 h, read-out: MIC): 16 µg/mL (≈ 52.2 µM); MIC (Candida auris strains; 24 h, strain 22 VCPI 513/P/14): > 128 µg/mL; MIC (Candida auris strains; 24 h, strain 23 VCPI 514/P/14): > 128 µg/mL; MIC (Candida auris strains; 24 h, strain 24 VCPI 250/P/14, 24 h, read-out: MIC): 64 µg/mL (≈ 209 µM); MIC (Candida auris strains; 24 h, strain 25 VCPI 265/P/14): > 128 µg/mL; MIC (Candida auris strains; 24 h, strain 26 VCPI 266/P/14): > 128 µg/mL; MIC (Candida auris strains; 24 h, strain 27 VCPI 462/P/14): > 128 µg/mL; MIC (Candida auris strains; 24 h, strain 28 VCPI 463/P/14): > 128 µg/mL; MIC (Candida auris strains; 24 h, strain 29 VCPI 467/P/14): > 128 µg/mL; MIC (Candida auris strains; 24 h, strain 30 VCPI 471a/P/14): > 128 µg/mL; MIC (Candida auris strains; 24 h, strain 31 VCPI 478/P/14): > 128 µg/mL; MIC (Candida auris strains; 24 h, strain 32 VCPI 518/P/14): > 128 µg/mL; MIC (Candida auris strains; 24 h, strain 33 VCPI 550/P/14): > 128 µg/mL; MIC (Candida auris strains; 24 h, strain 34 VCPI 714/P/14): > 128 µg/mL; MIC (Candida auris strains; 24 h, strain 35 VCPI 717/P/14, 24 h, read-out: MIC): 4 µg/mL (≈ 13.1 µM); MIC (Candida auris strains; 24 h, strain 36 VCPI 1060/P/14): > 128 µg/mL; MIC (Candida auris strains; 24 h, strain 37 VCPI 74/P/15): > 128 µg/mL; MIC (Candida auris strains; 24 h, strain 38 VCPI 213/P/15): > 128 µg/mL; MIC (Candida auris strains; 48 h, strain 1 VPCI 669/P/12): > 128 µg/mL; MIC (Candida auris strains; 48 h, strain 2 VCPI 671/P/12): > 128 µg/mL; MIC (Candida auris strains; 48 h, strain 3 VCPI 674/P/12): 128 µg/mL (≈ 418 µM); MIC (Candida auris strains; 48 h, strain 4 VCPI 683/P/12): > 128 µg/mL; MIC (Candida auris strains; 48 h, strain 5 VCPI 692/P/12): > 128 µg/mL; MIC (Candida auris strains; 48 h, strain 6 VCPI 712/P/12): 128 µg/mL (≈ 418 µM); MIC (Candida auris strains; 48 h, strain 7 VCPI 471/P/13): > 128 µg/mL; MIC (Candida auris strains; 48 h, strain 8 VCPI 475/P/13, 48 h, read-out: MIC): 64 µg/mL (≈ 209 µM); MIC (Candida auris strains; 48 h, strain 9 VCPI 478/P/13): 128 µg/mL (≈ 418 µM); MIC (Candida auris strains; 48 h, strain 10 VCPI 479/P/13): 128 µg/mL (≈ 418 µM); MIC (Candida auris strains; 48 h, strain 11 VCPI 480/P/13): > 128 µg/mL; MIC (Candida auris strains; 48 h, strain 12 VCPI 482/P/13): > 128 µg/mL; MIC (Candida auris strains; 48 h, strain 13 VCPI 483/P/13): 128 µg/mL (≈ 418 µM); MIC (Candida auris strains; 48 h, strain 14 VCPI 1130/P/13, 48 h, read-out: MIC): 64 µg/mL (≈ 209 µM); MIC (Candida auris strains; 48 h, strain 15 VCPI 1132/P/13): 128 µg/mL (≈ 418 µM); MIC (Candida auris strains; 48 h, strain 16 VCPI 1133/P/13): > 128 µg/mL; MIC (Candida auris strains; 48 h, strain 17 VCPI 105/P/14): 128 µg/mL (≈ 418 µM); MIC (Candida auris strains; 48 h, strain 18 VCPI 107/P/14): > 128 µg/mL; MIC (Candida auris strains; 48 h, strain 19 VCPI 510/P/14): > 128 µg/mL; MIC (Candida auris strains; 48 h, strain 20 VCPI 511/P/14): > 128 µg/mL; MIC (Candida auris strains; 48 h, strain 21 VCPI 512/P/14): > 128 µg/mL; MIC (Candida auris strains; 48 h, strain 22 VCPI 513/P/14): > 128 µg/mL; MIC (Candida auris strains; 48 h, strain 23 VCPI 514/P/14): > 128 µg/mL; MIC (Candida auris strains; 48 h, strain 24 VCPI 250/P/14): > 128 µg/mL; MIC (Candida auris strains; 48 h, strain 25 VCPI 265/P/14): > 128 µg/mL; MIC (Candida auris strains; 48 h, strain 26 VCPI 266/P/14): > 128 µg/mL; MIC (Candida auris strains; 48 h, strain 27 VCPI 462/P/14): > 128 µg/mL; MIC (Candida auris strains; 48 h, strain 28 VCPI 463/P/14): > 128 µg/mL; MIC (Candida auris strains; 48 h, strain 29 VCPI 467/P/14): > 128 µg/mL; MIC (Candida auris strains; 48 h, strain 30 VCPI 471a/P/14): > 128 µg/mL; MIC (Candida auris strains; 48 h, strain 31 VCPI 478/P/14): > 128 µg/mL; MIC (Candida auris strains; 48 h, strain 32 VCPI 518/P/14): > 128 µg/mL; MIC (Candida auris strains; 48 h, strain 33 VCPI 550/P/14): > 128 µg/mL; MIC (Candida auris strains; 48 h, strain 34 VCPI 714/P/14): > 128 µg/mL; MIC (Candida auris strains; 48 h, strain 35 VCPI 717/P/14): > 128 µg/mL; MIC (Candida auris strains; 48 h, strain 36 VCPI 1060/P/14): > 128 µg/mL; MIC (Candida auris strains; 48 h, strain 37 VCPI 74/P/15): > 128 µg/mL; MIC (Candida auris strains; 48 h, strain 38 VCPI 213/P/15): > 128 µg/mL; number of resistant isolates (Candida auris strains; of 38 C. auris isolates): 38; Group Geometric mean (C. albicans strain 529L; [2]): 3.16 × 10^3 CFU/mL; Log Group Geometric mean (C. albicans strain 529L; [2]): 3.50 CFU/mL; Log reduction from vehicle control (C. albicans strain 529L; [2]): −1.06 CFU/mL; Group Geometric mean (C. albicans strain 529L; [3]): 1.50 × 10^2 CFU/mL; Log Group Geometric mean (C. albicans strain 529L; [3]): 2.18 CFU/mL; Log reduction from vehicle control (C. albicans strain 529L; [3]): 1.52 CFU/mL; Group Geometric mean (C. albicans strain 529L; [4]): 1.00 CFU/mL; Log Group Geometric mean (C. albicans strain 529L; [4]): 0.00 CFU/mL; Log reduction from vehicle control (C. albicans strain 529L; [4]): 3.57 CFU/mL; Group Geometric mean (C. albicans strain 529L; [5]): 1.00 CFU/mL; Log Group Geometric mean (C. albicans strain 529L; [5]): 0.00 CFU/mL; Log reduction from vehicle control (C. albicans strain 529L; [5]): 4.22 CFU/mL; Group Geometric mean (C. albicans strain 529L; [6]): 1.00 CFU/mL; Log Group Geometric mean (C. albicans strain 529L; [6]): 0.00 CFU/mL; Log reduction from vehicle control (C. albicans strain 529L; [6]): 4.18 CFU/mL; Group Geometric mean (C. albicans strain 529L; [7]): 1.00 CFU/mL; Log Group Geometric mean (C. albicans strain 529L; [7]): 0.00 CFU/mL; Log reduction from vehicle control (C. albicans strain 529L; [7]): 4.30 CFU/mL; Group Geometric mean (C. albicans strain 529L; [8]): 1.00 CFU/g; Log Group Geometric mean (C. albicans strain 529L; [8]): 0.00 CFU/g; Log reduction from vehicle control (C. albicans strain 529L; [8]): 5.49 CFU/g; Group Geometric mean (C. albicans strain 529L; [9]): 1.04 × 10^3 CFU/mL; Log Group Geometric mean (C. albicans strain 529L; [9]): 3.02 CFU/mL; Log reduction from vehicle control (C. albicans strain 529L; [9]): −0.58 CFU/mL; Group Geometric mean (C. albicans strain 529L; [10]): 1.27 × 10^2 CFU/mL; Log Group Geometric mean (C. albicans strain 529L; [10]): 2.10 CFU/mL; Log reduction from vehicle control (C. albicans strain 529L; [10]): 1.59 CFU/mL; Group Geometric mean (C. albicans strain 529L; [11]): 1.49 CFU/mL; Log Group Geometric mean (C. albicans strain 529L; [11]): 0.17 CFU/mL; Log reduction from vehicle control (C. albicans strain 529L; [11]): 3.40 CFU/mL; Group Geometric mean (C. albicans strain 529L; [12]): 1.00 CFU/mL; Log Group Geometric mean (C. albicans strain 529L; [12]): 0.00 CFU/mL; Log reduction from vehicle control (C. albicans strain 529L; [12]): 4.22 CFU/mL; Group Geometric mean (C. albicans strain 529L; [13]): 1.00 CFU/mL; Log Group Geometric mean (C. albicans strain 529L; [13]): 0.00 CFU/mL; Log reduction from vehicle control (C. albicans strain 529L; [13]): 4.18 CFU/mL; Group Geometric mean (C. albicans strain 529L; [14]): 1.00 CFU/mL; Log Group Geometric mean (C. albicans strain 529L; [14]): 0.00 CFU/mL; Log reduction from vehicle control (C. albicans strain 529L; [14]): 4.30 CFU/mL; Group Geometric mean (C. albicans strain 529L; [15]): 1.00 CFU/g; Log Group Geometric mean (C. albicans strain 529L; [15]): 0.00 CFU/g; Log reduction from vehicle control (C. albicans strain 529L; [15]): 5.49 CFU/g; rats having burden below the limit of detection (C. albicans strain 529L; fluconazole 20 mg/kg PO once or twice, lavage Day 3 post infection): 11/12; reduction in burden (C. albicans strain 529L; fluconazole 20 mg/kg PO, lavage Day 2 post infection): about 1.6 Log10 CFU/mL; lavage burden (C. albicans strain 529L; fluconazole once or twice, all rats, Day 5 post infection): below the limit of detection; terminal vaginal tissue burden (C. albicans strain 529L; fluconazole once or twice, all rats, Day 9): below the limit of detection; tolerability [1]: well tolerated with no adverse events observed
